According to US6339044B1, “N-P-Cyanoaryl nitrogen-containing heterocycles having pendent sulfur-containing groups” (Bayer Aktiengesellschaft, priority 1993, dated 2002):

Tests used:
Abutilon = assay: Post-emergence test, Abutilon; assay type: in vivo; details: 30 g per hectare, after three weeks
Method: (§1) To prepare an expedient active compound preparation, 1 part by weight of active compound is mixed with the specified amount of solvent, the specified amount of emulsifier is added and the concentrate is diluted with water to the desired concentration.
(§2) Test plants which have a height of 5-15 cm are sprayed with the active compound preparation in such a way that the amounts of active compound per unit area desired in each case are applied. After three weeks, the degree of damage of the plants is evaluated in % damage in comparison with the development of the untreated control.
(§3) 0% denotes no effect (as untreated control)
(§4) 100% denotes total destruction

Veronica = assay: Post-emergence test, Veronica; assay type: in vivo; details: 30 g per hectare, after three weeks
Method: as §1, §2, §3, §4

[1] = system: horseradish leaf beetle larvae Phaedon cochleariae; assay: Phaedon larvae test; assay type: in vivo; details: after 3 days, active compound concentration 0.1%, cabbage leaves dipped
Method: Solvent: 7 parts by weight of dimethylformamide
Emulsifier: 1 part by weight of alkylaryl polyglycol ether
To produce an expedient active compound preparation, 1 part by weight of active compound is mixed with the specified amount of solvent and the specified amount of emulsifier and the concentrate is diluted with water to the desired concentration.
Cabbage leaves (Brassica oleracea) are treated by dipping them into the active compound preparation of the desired concentration and populated with horseradish leaf beetle larvae Phaedon cochleariae, as long as the leaves are still moist.
After the desired time, the destruction is determined in %. In the determination, 100% denotes that all beetle larvae have been destroyed; 0% denotes that no beetle larvae have been destroyed.

Solanum = assay: Post-emergence test, Solanum; assay type: in vivo; details: 30 g per hectare, after three weeks
Method: as §1, §2, §3, §4

Chenopodium = assay: Post-emergence test, Chenopodium; assay type: in vivo; details: 30 g per hectare, after three weeks
Method: as §1, §2, §3, §4

wheat [2] = assay: Pre-emergence test, wheat; assay type: in vivo; details: 60 g per hectare, after three weeks, cultivated plant
Method: as §1
Seeds of the test plants are sown in standard soil and are watered after 24 hours with the active compound preparation. The amount of water per unit area is expediently kept constant during this. The active compound concentration in the preparation is not important, only the application rate of the active compound per unit area is critical. After three weeks, the degree of damage of the plants is evaluated in % damage in comparison with the development of the untreated control. In the evaluation:
as §3, §4

wheat [3] = assay: Post-emergence test, wheat; assay type: in vivo; details: 30 g per hectare, after three weeks, cultivated plant
Method: as §1, §2, §3, §4

Ipomoea = assay: Post-emergence test, Ipomoea; assay type: in vivo; details: 30 g per hectare, after three weeks
Method: as §1, §2, §3, §4

Compound | degree of damage of the plants in % damage, Abutilon (Abutilon) | degree of damage of the plants in % damage, Veronica (Veronica) | degree of destruction [1] | degree of damage of the plants in % damage, Solanum (Solanum) | degree of damage of the plants in % damage, Chenopodium (Chenopodium) | degree of damage of the plants in % damage, wheat (wheat [2]) | degree of damage of the plants in % damage, wheat (wheat [3]) | degree of damage of the plants in % damage, Ipomoea (Ipomoea) | melting point
Cn1c(C(F)(F)F)cc(=O)n(-c2cc(F)c(C#N)cc2F)c1=S [Example 3, 1-(4-cyano-2,5-difluoro-phenyl)-3,6-dihydro-2-thioxo-6-oxo-3-methyl-4-trifluoromethyl-1(2H)-pyrimidine] | 100% | 100% | 100% | 100% | 100% | 0% | 5% | 100% | –
CCS(=O)(=O)N(C)c1cc(-n2c(=O)cc(C(F)(F)F)n(C)c2=S)c(F)cc1C#N [Example 33, 1-(4-cyano-2-fluoro-5-(N-ethylsulphonyl-N-methyl-amino)-phenyl)-3,6-dihydro-2-thio-6-oxo-3-methyl-4-trifluoromethyl-1(2H)-pyrimidine] | – | – | – | – | – | – | – | – | 68 °C
CCS(=O)(=O)Nc1cc(-n2c(=O)cc(C(F)(F)F)n(C)c2=S)c(F)cc1C#N [Example 4, 1-(4-cyano-2-fluoro-5-ethylsulphonylamino-phenyl)-3,6-dihydro-2-thio-6-oxo-3-methyl-4-trifluoromethyl-1(2H)-pyrimidine] | 100% | 100% | – | 100% | 100% | 0% | 5% | 100% | –
CCS(=O)(=O)N(c1cc(-n2c(=O)cc(C(F)(F)F)n(C)c2=S)c(F)cc1C#N)S(C)(=O)=O [Example 32, 1-(4-cyano-2-fluoro-5-(N-ethylsulphonyl-N-methylsulphonyl-amino)-phenyl)-3,6-dihydro-2-thio-6-oxo-3-methyl-4-trifluoromethyl-1(2H)-pyrimidine] | – | – | – | – | – | – | – | – | 122 °C
